In US20130224110A1, “USE OF ADENOSINE RECEPTOR SIGNALING TO MODULATE PERMEABILITY OF BLOOD-BRAIN BARRIER” (CORNELL UNIVERSITY, priority 2010, published 2013):

How the values were obtained:
[1] = test system: HCMECD3 cells; assay: cAMP levels in human brain endothelial cells (cAMP Screen kit); format: cell-based; conditions: 15 minutes
Protocol: […]3 cells were grown to confluencey on 24 well plates. As adenosine receptor (“AR”) stimulation is known to influence cAMP levels, cells were treated with or without various concentrations of NECA (general AR agonist), CCPA (A1 AR agonist), CGS 21860 (A2A AR agonist), DMSO vehicle, or Forksolin (induces cAMP). After 15 minutes, lysis buffer was added and the cells were frozen at -80 C to stop the reaction. Duplicate samples were used for each condition. cAMP levels were assayed using a cAMP Screen kit (Applied Biosystems, Foster City, Calif.).

[2] = test system: Z310 cells; assay: Jurkat cell migration across Z310 choroid plexus cell transwell; format: cell-based, murine; conditions: 24 hours, n=1
Protocol: To test the hypothesis, Transwell membranes were seeded with Z310 cells and allowed to grow to confluencey. 2×10^6 Jurkat cells were added to the upper chamber with or with out NECA (n=1, general AR agonist), CCPA (n=1, A1 AR agonist), CGS 21860 (n=1, A2A AR agonist), or DMSO vehicle(n=1). After 24 hours, migrated cells in the lower chamber were counted. Values are relative to the number of cells that migrate through non-Z310 seeded transwells and the results are shown in FIG. 12.

[3] = test system: hCMEC/D3 cells; assay: Jurkat cell migration across hCMEC/D3 transwell in vitro BBB; format: cell-based, human; conditions: 24 hours
Protocol: hCMEC/D3 cells were seeded onto Transwell and allowed to grow to confluencey. 2×10^6 Jurkat cells were added to the upper chamber with or without NECA (general adenosine receptor [AR] agonist), CCPA (A1 AR agonist), CGS 21860 (A2A AR agonist), or DMSO vehicle. After 24 hours, migrated cells in the lower chamber were counted. Values are relative to the number of cells that migrate through non-[…]3 seeded transwells.

[4] = test system: CD4+ lymphocytes in the brain and spinal cord; assay: CD4+ lymphocyte infiltration of brain and spinal cord after EAE induction (immunohistochemistry); format: in vivo; conditions: wild type mice, day 15 post-EAE induction, vs DMSO
Protocol: Anesthetized mice were perfused with PBS, and brains, spleens, and spinal cords were isolated and snap frozen in Tissue Tek-OCT medium. Five μm sections (brains in a sagittal orientation) were affixed to Supefrost/Plus slides (Fisher), fixed in acetone, and stored at −80° C. For immunostaining, slides were thawed and treated with 0.03% H2O2 in PBS to block endogenous peroxidase, blocked with Casein (Vector) in normal goat serum (Zymed), and then incubated with anti-CD45 (YW62.3), anti-CD4 (RM4-5), or anti-ICAM-1 (3E2). Slides were incubated with biotinylated goat anti-rat Ig (Jackson ImmunoResearch) and streptavidin-HRP (Zymed) and developed with an AEC (Red) substrate kit (Zymed) and a hematoxylin counterstain. […]
As CD73 catalyzes the breakdown of AMP to adenosine and ARs are expressed in the CNS (Tsutsui et al., “A1 Adenosine Receptor Upregulation and Activation Attenuates Neuroinflammation and Demyelination in a Model of Multiple Sclerosis,” J. Neurosci. 24:1521-1529 (2004)); Rosi et al., The Influence of Brain Inflammation Upon Neuronal Adenosine A2B Receptors,” J. Neurochem. 86:220-227 (2003), which are hereby incorporated by reference in their entirety), it was next determined if AR signaling is important during EAE progression. […] Since CD73 is highly expressed on the choroid plexus (FIG. 6C), it was next determined if ARs are also expressed on the choroid plexus. […]

SMILES	cAMP levels [1]	lymphocyte (Jurkat) migration across the CP [2]	lymphocyte (Jurkat) migration across the in vitro BBB [3]	frequency of CD4+ lymphocytes in the brain and spinal cord [4]
CCNC(=O)[C@H]1O[C@@H](n2cnc3c(N)ncnc32)[C@H](O)[C@@H]1O [NECA, 5′-N-ethylcarboxamido adenosine]	increased cAMP levels	induced migration	induced some migration	–
Nc1nc2c(cnn2CCc2ccccc2)c2nc(-c3ccco3)nn12 [SCH58261, 2-(2-Furanyl)-7-(2-phenylethyl)-7H-pyrazolo[4,3-e][1,2,4]triazolo[1,5-c]pyrimidin-5-amine]	–	–	–	significantly lower frequency of CD4^+ lymphocytes in the brain and spinal cord
